Columns and labels:
[1] = biological target: T1, Gastrin/cholecystokinin type B receptor (Mus musculus) (UniProt P56481); assay: Evaluated for inhibition of [125I]-CCK-8S binding to cholecystokinin CCK-B receptor from mouse brain membranes […] (in vitro); details: 10 uM
T1 sequence (whole entry): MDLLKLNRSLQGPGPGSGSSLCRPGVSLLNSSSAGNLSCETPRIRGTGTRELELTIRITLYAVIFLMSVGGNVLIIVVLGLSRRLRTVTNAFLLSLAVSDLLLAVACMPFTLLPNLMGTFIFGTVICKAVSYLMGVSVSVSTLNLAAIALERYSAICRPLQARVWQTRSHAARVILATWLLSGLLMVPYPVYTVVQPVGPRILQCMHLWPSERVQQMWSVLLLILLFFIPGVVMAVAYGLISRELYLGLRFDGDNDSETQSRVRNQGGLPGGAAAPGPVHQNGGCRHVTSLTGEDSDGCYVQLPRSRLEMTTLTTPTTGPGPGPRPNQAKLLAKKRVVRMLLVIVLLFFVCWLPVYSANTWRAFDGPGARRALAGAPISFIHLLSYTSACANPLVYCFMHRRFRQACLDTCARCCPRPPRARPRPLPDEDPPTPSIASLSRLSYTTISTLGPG

[2] = biological target: T2, Gastrin/cholecystokinin type B receptor (Mus musculus, UniProt P56481); assay: Evaluated for inhibition of [125I]CCK-8S binding to cholecystokinin CCK-B receptor from mouse brain membranes […] (in vitro)
T2 sequence (P56481 whole entry): T1 sequence (whole entry)

| IC50 [2] [nM] | Structure (SMILES) | inhibition [1] [%] |
| --- | --- | --- |
|  | O=c1c2ccccc2nc(CCCc2ccccc2)n1-c1ccccc1 | 21 |
|  | O=c1c2ccccc2nc(Cc2c[nH]c3ccccc23)n1-c1ccccc1 | 36 |
| 430 | CC(C)Oc1cccc(-n2c(/C=C/c3c[nH]c4ccccc34)nc3ccccc3c2=O)c1 |  |
|  | O=c1c2ccccc2nc(CCCc2c[nH]c3ccccc23)n1-c1ccccc1 | 20 |
| 9100 | CC(C)Oc1cccc(-n2c(C(C)Cc3c[nH]c4ccccc34)nc3ccccc3c2=O)c1 (centres undefined) |  |
|  | O=c1c2ccccc2nc(Cc2ccccc2)n1-c1ccccc1 | 6 |
| 70 | CC(C)Oc1cccc(-n2c(CC(C)c3c[nH]c4ccccc34)nc3ccccc3c2=O)c1 (centres undefined) |  |
|  | O=c1c2ccccc2nc(CCc2ccccc2)n1-c1ccccc1 | 27 |
| 1400 | CC(C)Oc1cccc(-n2c(/C=C/c3c[nH]c4ccc(Br)cc34)nc3ccccc3c2=O)c1 |  |
